According to paper PMC10778824, “New Chalcone Derivatives Containing 2,4-Dichlorobenzenesulfonamide Moiety with Anticancer and Antioxidant Properties” (International Journal of Molecular Sciences, 2023):
In brackets after ≈: the same amount, converted by molar mass.

Experiments:
[1] = ABTS radical scavenging assay; details: concentration of 800 µg/mL
Procedure: The ABTS radical scavenging assay of chalcone derivatives was performed with ascorbic acid as a standard. Different concentrations of samples, dissolved in DMSO, were mixed with 170 μL of ABTS solution (2 mM ABTS diammonium salt and 3.5 mM potassium persulfate), and water was added to a final volume of 300 μL. ABTS solution with DMSO was used as a control. […] ABTS inhibition was calculated according to the following Formula (3):ABTS Inhibition (%) = [(Acontrol − Asample)/Acontrol] × 100%(3)

[2] = test system: human neonatal fibroblasts; test: MTT assay, noncancerous fibroblasts; assay type: cell-based; details: Homo sapiens, Fibroblast, 24 h treatment
Procedure: (§1) The human gastric adenocarcinoma AGS, cervical cancer HeLa, and acute promyelocytic leukemia HL-60 cells were obtained from the American Type Culture Collection (ATCC, Manassas, VA, USA). Human neonatal fibroblasts were obtained from LGC Standards (Luckenwalde, Germany). The HeLa and AGS lines were cultured in Dulbecco’s modified Eagle’s medium (DMEM) and DMEM/F12 medium, respectively. The HL-60 line was maintained in RPMI-1640 medium. Fibroblasts were cultured in Fibroblast Growth Medium with Supplement Mix. All the media were supplemented with 100 units/mL of penicillin, 100 µg/mL of streptomycin, and 10% (v/v) fetal bovine serum (FBS) (Merck Millipore, Burlington, MA, USA). The cells were incubated at 37 °C and 5% CO2.
(§2) To estimate the cytotoxic effect of the five compounds (4–8), MTT (3-(4,5-dimethylthiazol-2-yl)-2,5-diphenyltetrazolium bromide) assay was used. Oxaliplatin was used as a positive control in this test. All the cell lines were seeded in 96-well plates at a density of 5 × 10^3 cells/well and treated for 24 h with the compounds at concentrations of 0.5–40 µg/mL. Oxaliplatin was tested in the range of 20–400 µg/mL (50–1000 µM). After treatment, the cells were incubated with MTT (0.5 mg/mL; Merck Millipore, Burlington, MA, USA) for 3 h. Then, DMSO was used to dissolve formazan crystals, and the absorbance of the formazan solution was measured with a plate reader (Epoch, BioTek Instruments, Santa Clara, CA, USA). All the results (±standard deviation (SD)) were obtained from six repetitions in at least two independent experiments. The data are expressed as IC50 values (µg/mL).

neutrophil elastase = target: T1, neutrophil elastase (Sus scrofa, UniProt P00772); test: Elastase assay (SANA substrate); assay type: biochemical, porcine; details: Tris-HCl pH 8.0, SANA substrate; read-out: neutrophil elastase inhibition IC50 (converted)
T1 construct: purchased Sigma Chemical Co. (St. Louis, MO, USA)
Procedure: The elastase analysis was performed according to the spectrophotometric method with oleanolic acid as a reference. The reaction mixture (Tris-HCl buffer (pH 8.0), 1.0 μg/mL porcine pancreatic elastase, and different concentrations of chalcone derivatives was preincubated at room temperature for 15 min. Afterwards, the addition of the substrate—SANA—started the reaction. Product formation changes were analyzed at λ = 410 nm for 20 min every 20 s (Epoch, BioTek Instruments, Santa Clara, CA, USA). The control was composed of Tris-HCl buffer (pH 8.0), an appropriate concentration of the chalcone derivative, and SANA.

AGS cells [3] = test: MitoPotential assay (mitochondrial membrane depolarization); assay type: cell-based, human; details: 10 µg/mL, 5 h
Procedure: The AGS cells were seeded in a 12-well plate (1 × 10^5 cells/well) and incubated with compound 5 at concentrations of 1, 5, and 10 µg/mL; oxaliplatin at the concentration of 40 µg/mL; and DMSO (0.2%, v/v). After 5 h of exposure, the cells were stained with the Muse MitoPotential Assay Kit (Merck Millipore, Burlington, MA, USA) and analyzed with the Muse Cell Analyzer (Merck Millipore, Burlington, MA, USA). The percentage of depolarized live and dead cells was estimated in the experiments, which were independently repeated three times.

[4] = DPPH radical scavenging assay; details: concentration of 800 µg/mL
Procedure: The DPPH radical scavenging assay of samples (ligands or complexes) was performed with ascorbic acid as a standard. Different concentrations of chalcone derivatives, dissolved in DMSO, were mixed with the same amount of 0.06 mM DPPH methanolic solution and incubated at room temperature in the dark for 30 min. The absorbance was analyzed at λ = 517 nm using a 96-well microplate reader (Epoch, BioTek System, Winooski, VT, USA). The control was composed of DPPH and DMSO. DPPH inhibition was calculated according to the following Formula (2):DPPH Inhibition (%) = [(Acontrol − Asample)/Acontrol] × 100%(2)

[5] = test system: gastric adenocarcinoma AGS; test: MTT assay, AGS cells; assay type: cell-based, human
Procedure: as §1, §2

AGS cells [6] = test: Annexin V and dead cell assay (flow cytometry); assay type: cell-based, human; details: 24 h
Procedure: (§3) To estimate the viability and induction of apoptosis/necrosis in the population of AGS cells treated with compound 5, the Muse Annexin V and a Dead Cell Assay Kit (Merck Millipore, Burlington, MA, USA) were used. The cells were seeded in 12-well plates (1 × 10^5 cells/well) and incubated with the compound at concentrations of 1, 5, and 10 µg/mL. […] After 24 h, the cells were stained with the kit reagents, namely, annexin V and 7-AAD (7-aminoactinomycin), and analyzed by flow cytometry (Muse Cell Analyzer, Merck Millipore, Burlington, MA, USA). The experiments were performed in three independent repeats.

[7] = Annexin V and dead cell assay (flow cytometry); assay type: cell-based, human; details: human, AGS cells, 10 µg/mL, read-out: live cells (viability)
Procedure: as §3

AGS cells [8] = test: Microscopic observation of AGS cells; assay type: cell-based, human; details: microscopy, 200×; compound 5 at 1, 5, 10 µg/mL; oxaliplatin 20 and 40 µg/mL
Procedure: These changes were clearly visible when higher concentrations of the compound were used in the study.
Figure 2 The effect of chalcone derivative 5 on AGS cells. The cells were treated with DMSO (0.2%, v/v) (A) and the compound at concentrations of 1 (B), 5 (C), and 10 (D) µg/mL and oxaliplatin at 20 (E) and 40 (F) µg/mL. The images were taken at 200× magnification.

cervical cancer HeLa = test: MTT assay, HeLa cells; assay type: cell-based, human
Procedure: as §1, §2

[9] = SI = IC50 noncancer cells/IC50 cancer cells, in relation to human neonatal fibroblasts

T1 sequence (P00772 27-266): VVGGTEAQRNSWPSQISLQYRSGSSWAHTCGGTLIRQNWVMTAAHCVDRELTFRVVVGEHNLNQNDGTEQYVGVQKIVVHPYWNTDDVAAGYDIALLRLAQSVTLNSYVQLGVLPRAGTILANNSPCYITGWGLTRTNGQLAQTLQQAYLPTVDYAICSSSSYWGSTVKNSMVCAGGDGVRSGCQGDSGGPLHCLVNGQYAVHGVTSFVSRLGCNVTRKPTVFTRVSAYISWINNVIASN

With `Cc1cc(S(=O)(=O)Nc2ccc(C(=O)/C=C/c3ccc(Br)cc3)cc2)c(Cl)cc1Cl` [Compound 5, (E)-N-{4-[3-(4-Bromophenyl)acryloyl]phenyl}-2,4-Dichloro-5-Methylbenzenesulfonamide] the “% of ABTS radical inhibition” value [1] was 16.01 ± 0.69%, the IC50 [2] was 25.6 ± 1.04 µg/mL (≈ 48.7 µM) and the IC50 (neutrophil elastase) was 121 µM. The depolarized/dead cells (AGS cells [3]) was 32.71% ± 3.50%, the depolarized/live cells (AGS cells [3]) was 34.20% ± 2.57% and the “% of DPPH radical inhibition” value [4] was 30.18 ± 0.23%. For the same compound, the IC50 ([5]; Homo sapiens, AGS, 24 h, MTT, 24 h treatment) was < 1 µg/mL, the “selectivity index AGS” value [5, 9] was 28.75 and the dead cells (AGS cells [6]; 5 µg/mL) was 18.28% ± 1.80%. For the same compound, the late apoptotic cells (AGS cells [6]; 5 µg/mL) was 33.92% ± 3.05%, the dead cells (AGS cells [6]; 10 µg/mL) was 22.16% ± 2.04% and the late apoptotic cells (AGS cells [6]; 10 µg/mL) was 49.90% ± 2.07%. The “live cells (viability)” value (AGS cells [6]; 10 µg/mL) was 26.26% ± 4.03%, the viability at 24 h, 10 µg/mL [7] was 29% and the “morphological changes of AGS cells” value (AGS cells [8]) was “cell shrinkage, membrane blebbing, and cell detachment”. For the same compound, the IC50 (cervical cancer HeLa; Homo sapiens, HeLa, MTT, 24 h treatment) was 5.67 ± 0.35 µg/mL (≈ 10.8 µM) and the “selectivity index HeLa” value (cervical cancer HeLa; [9]) was 4.51.
